Assay results taken from patent US20080103205A1, “Pesticidal compositions and methods of use” (priority 2006, published 2008).
Read-outs that look alike come from different tables or passages of the source.

Assays:
Meloidogyne incognita = assay: Toxicity test, J2 juveniles of Meloidogyne incognita, 96 well micro plate; format: in vivo; conditions: Meloidogyne incognita
Protocol: (§1) Methodology: Toxicity tests were conducted using J2 juveniles of Meloidogyne incognita adult Caenorhabditis elegans collected from nematode-infested tomato plant roots and culture Petri plates, respectively. Test concentrations of 50, 100, 200, 300, or 400 ppm were prepared in 0.2% dimethylsulfoxide (DMSO) in tap water. Aliquots (300 microliters (ul)) were applied to a 96 well micro plate and a 20 ul aqueous solution containing nematodes was added. The number of nematodes in 20 ul ranged from 17 to 30. Micro plates were sealed with Parafilm™ and incubated at room temperature. Similar tests conducted with 0.2% DMSO in tap water served as controls. Nematode mortality was checked at 24, 48, 72, 120, and 168 hr after incubation. Nematodes that were motionless for 30 sec when observed under a stereomicroscope were considered paralyzed and included in mortality counts. Each concentration was replicated five times and mean percent mortality was calculated after correcting for control mortality using Abbott's formula.
(§2) Data Analysis: Mortality data were analyzed using PROC PROBIT (SAS) program and LC50 values were estimated.

Caenorhabditis elegans = assay: Toxicity test, adult Caenorhabditis elegans, 96 well micro plate; format: in vivo; conditions: Caenorhabditis elegans
Protocol: as §1, §2

[1] = 24 h, read-out: Corrected Mortality (%)
[2] = 48 h, read-out: Corrected Mortality (%)
[3] = 72 h, read-out: Corrected Mortality (%)
[4] = 120 h, read-out: Corrected Mortality (%)
[5] = 168 h, read-out: Corrected Mortality (%)

## O=C(O)c1c2ccccc2cc2ccccc12 [9-AC, anthracene-9-carboxylic acid]
Meloidogyne incognita; 24 h
  mortality at 50 ppm: 11%
  mortality at 100 ppm: 12%
  mortality at 200 ppm: 13%
  mortality at 300 ppm: 16%
  mortality at 400 ppm: 23%
Meloidogyne incognita; [1]
  mortality at 50 ppm: 10%
  mortality at 100 ppm: 11%
  mortality at 200 ppm: 12%
  mortality at 300 ppm: 15%
  mortality at 400 ppm: 22%
Meloidogyne incognita; 48 h
  mortality at 50 ppm: 21%
  mortality at 100 ppm: 27%
  mortality at 200 ppm: 28%
  mortality at 300 ppm: 37%
  mortality at 400 ppm: 49%
Meloidogyne incognita; [2]
  mortality at 50 ppm: 17%
  mortality at 100 ppm: 23%
  mortality at 200 ppm: 24%
  mortality at 300 ppm: 34%
  mortality at 400 ppm: 46%
Meloidogyne incognita; 72 h
  mortality at 50 ppm: 36%
  mortality at 100 ppm: 43%
  mortality at 200 ppm: 49%
  mortality at 300 ppm: 60%
  mortality at 400 ppm: 74%
Meloidogyne incognita; [3]
  mortality at 50 ppm: 32%
  mortality at 100 ppm: 39%
  mortality at 200 ppm: 46%
  mortality at 300 ppm: 57%
  mortality at 400 ppm: 72%
Meloidogyne incognita; 120 h
  mortality at 50 ppm: 58%
  mortality at 100 ppm: 65%
  mortality at 200 ppm: 67%
  mortality at 300 ppm: 84%
  mortality at 400 ppm: 97%
Meloidogyne incognita; [4]
  mortality at 50 ppm: 54%
  mortality at 100 ppm: 62%
  mortality at 200 ppm: 64%
  mortality at 300 ppm: 83%
  mortality at 400 ppm: 97%
Meloidogyne incognita; 168 h
  mortality at 50 ppm: 81%
  mortality at 100 ppm: 86%
  mortality at 200 ppm: 91%
  mortality at 300 ppm: 100%
  mortality at 400 ppm: 100%
Meloidogyne incognita; [5]
  mortality at 50 ppm: 79%
  mortality at 100 ppm: 84%
  mortality at 200 ppm: 89%
  mortality at 300 ppm: 100%
  mortality at 400 ppm: 100%
Caenorhabditis elegans; 24 h
  mortality at 50 ppm: 12%
  mortality at 100 ppm: 14%
  mortality at 200 ppm: 16%
  mortality at 300 ppm: 20%
  mortality at 400 ppm: 27%
Caenorhabditis elegans; [1]
  mortality at 50 ppm: 10%
  mortality at 100 ppm: 12%
  mortality at 200 ppm: 14%
  mortality at 300 ppm: 18%
  mortality at 400 ppm: 26%
Caenorhabditis elegans; 48 h
  mortality at 50 ppm: 25%
  mortality at 100 ppm: 30%
  mortality at 200 ppm: 33%
  mortality at 300 ppm: 39%
  mortality at 400 ppm: 58%
Caenorhabditis elegans; [2]
  mortality at 50 ppm: 23%
  mortality at 100 ppm: 28%
  mortality at 200 ppm: 31%
  mortality at 300 ppm: 37%
  mortality at 400 ppm: 57%
Caenorhabditis elegans; 72 h
  mortality at 50 ppm: 44%
  mortality at 100 ppm: 48%
  mortality at 200 ppm: 58%
  mortality at 300 ppm: 65%
  mortality at 400 ppm: 83%
Caenorhabditis elegans; [3]
  mortality at 50 ppm: 41%
  mortality at 100 ppm: 45%
  mortality at 200 ppm: 56%
  mortality at 300 ppm: 63%
  mortality at 400 ppm: 81%
Caenorhabditis elegans; 120 h
  mortality at 50 ppm: 66%
  mortality at 100 ppm: 73%
  mortality at 200 ppm: 85%
  mortality at 300 ppm: 90%
  mortality at 400 ppm: 99%
Caenorhabditis elegans; [4]
  mortality at 50 ppm: 64%
  mortality at 100 ppm: 71%
  mortality at 200 ppm: 84%
  mortality at 300 ppm: 89%
  mortality at 400 ppm: 99%
Caenorhabditis elegans; 168 h
  mortality at 50 ppm: 89%
  mortality at 100 ppm: 93%
  mortality at 200 ppm: 98%
  mortality at 300 ppm: 100%
  mortality at 400 ppm: 100%
Caenorhabditis elegans; [5]
  mortality at 50 ppm: 89%
  mortality at 100 ppm: 92%
  mortality at 200 ppm: 98%
  mortality at 300 ppm: 100%
  mortality at 400 ppm: 100%
